Experiments:
[1] = tested on: intraocular pressure (IOP); experiment: Topical application for IOP measurements on rat surgical glaucoma (ocular hypertensive) model; format: in vivo, male SpragueDawley rats
Experimental: Ocular hypertension was induced in 9 male SpragueDawley rats, weighing between 400 to 500 grams. Under general anesthesia with acepromazine maleate (12 mg/Kg) and ketamine (80 mg/Kg), IP, and topical proparacaine (0.5%), dissection of the conjunctiva was made with fine cuts. To reduce the stimulus for revascularization or neovascularization, dissection of the right eye was limited to the area immediately surrounding the vortex veins. Three of four vortex veins were exposed and ligated using 9.0 nylon sutures. Criterion for inclusion into the study was an intraocular pressure (IOP) increase of 5 mm Hg or more when compared to […] baseline IOP. Within 6 weeks, the IOP of all the operated eyes increased at least 5 mm Hg compared to baseline. National Institutes of Health Guidelines and Association for Research in Vision and Ophthalmology statement for the Use and Care of Animals were followed in this study.
Prior to initiation of treatment, baseline IOP was obtained in glaucoma rat models. IOP was measured via a specially modified Goldmann applanation tonometer (HAAG-STREIT, Bern, Switzerland) under sedation. Measurements are averages of two consecutive readings and were made at the same time of day and by the same observers.
Rats were treated topically with 20 μl of MP compounds (0.3-100 mM; n=3-6) on the operated eyes. […]

[2] = tested on: retinal ganglion cells (RGC); experiment: NMDA retinal damage model, scotopic electroretinogram A and B waves; format: in vivo, rats; settings: for A wave, % Baseline, Intravitreal / B wave, % Baseline, Intravitreal: intravitreal 2 mM co-administered with 2 ul 10 mM NMDA; for A wave, % Baseline, Topical / B wave, % Baseline, Topical: topical 100 mM, 20 μl 3 times per day, 5 days prior and 3 days post-NMDA
Experimental: Changes in electroretinogram (ERG) A and B waves have been used as indicators of RGC damage. To examine RGC neuroprotection, 2 ul intravitreal injections of 10 mM NMDA, sufficient to change ERG A and B-waves within 2 weeks, were challenged with co-administered intravitreal (2 mM) or topical 100 mM MPDTE, MPSEDE and amifostine in normal rats unilaterally. For topical administration, rats were pretreated for 5 days prior and 3 days post-NMDA administration with the agents at a frequency of 3 times per day with 20 μl agent. Scotopic ERG changes were measured in normal rats. Rats were dark adapted for at least 4 hrs. Eyes were dilated with atropine after which proparacaine and methylcellulose gel were applied topically. Custom made AgCl electrodes (64-1317, Warner Instruments, Hamden, Conn.) were placed on the apex of the cornea. Stimuli consisted of 10-microsec flashes of unattenuated white light generated by Ganzfield bowl photo stimulator (Grass Instruments, PS22, Quincy, Mass.). Data from each eye was recorded separately with a driver amplifier (Grass Instruments, Model 7DAF Polygraph, Quincy, Mass.). Data was acquired digitally via DASYLab (Bedford, N.H.). The contralateral normal eye served as an age matched negative control, e.g. response in a normal, undamaged eye. Differences in amplitude of the A-wave and B-waves between the treated eye and the contralateral eye and between treatment groups were calculated.

[3] = tested on: H9C2 cells; experiment: Doxorubicin chemotoxicity on H9C2 cells, intracellular calcium by fluo-3 AM; format: cell-based, rat; settings: 10 min exposure to 50 μM doxorubicin, cells without MPDTE pretreatment
Experimental: H9C2 cells, which are used as models for rat striated muscle, were cultured using techniques described previously (Lattanzio, F A Jr., Tiangco, D., Osgood, C., Beebe, S., Kerry, J. and Hargrave B Y. Cocaine increases intracellular calcium and reactive oxygen species, depolarizes mitochondria, and activates genes associated with heart failure and remodeling. Cardiovascular Toxiology (20050 5: 377-389). Fluorescent calcium indicator and ROS indicator were used to determine if the reported increase in intracellular calcium and ROS activity occurred and whether these changes were reduced in the presence of 2 mM MPSEDE or MPDTE. Cells were measured using a Zeiss 510 fluorescent confocal microscope as described in Lattanzio et al, 2005.
H9C2 cells, a rat myocyte model, were cultured in MEM until confluent using techniques described in Lattanzio et al, 2005. The cells were treated with 5 μM fluo-3 AM, a fluorescent calcium indicator, for 30 min at 37 C, washed and then exposed to 50 μM doxorubicin (a supermaximal toxic dose), in the presence or absence of 30 min pretreatment with 2 mM MPDTE. Doxorubicin increases intracellular calcium in cardiac cells by disrupting calcium homeostasis through the production of free radical damage and subsequent membrane damage. […] Protection may have occurred due to a combination of free radical scavenging and calcium chelation.

Row | Compound | IOP reduction of the components ([1]; MP or DTE administered alone or together, not as great as with MPDTE, FIG. 10) | A wave, % Baseline, Intravitreal [2] [% Baseline] | B wave, % Baseline, Intravitreal [2] [% Baseline] | A wave, % Baseline, Topical [2] [% Baseline] | B wave, % Baseline, Topical [2] [% Baseline] | increase of intracellular calcium [3] [%] | IOP reduction ([1]; single topical dose of 10-100 mM, FIG. 5-7) | reduction of NMDA damage ([2]; both intravitreal and topical administration (Table 1)) | reduction of NMDA damage ([2]; co-administration with NMDA, at the dose tested)
1 | polyethylene glycol monomethyl ether [MP] | reduction in IOP |  |  |  |  |  |  |  | 
2 | CN[C@H](CC(=O)O)C(=O)O [NMDA, N-methyl-D-aspartate] |  | 51.2 | 68.4 | 51.2 | 68.4 |  |  |  | 
3 | COc1cccc2c1C(=O)c1c(O)c3c(c(O)c1C2=O)C[C@@](O)(C(=O)CO)C[C@@H]3O[C@H]1C[C@H](N)[C@H](O)[C@H](C)O1 [doxorubicin] |  |  |  |  |  | 59.4 |  |  | 
4 | NCCCNCCSP(=O)(O)O [amifostine, S-2-[3-aminopropylamino]ethylphosphorothioate] |  | 94.2 | 83.3 | 69.4 | 99.3 |  |  |  | 
5 | methoxypolyethlene glycol thioester of ethylenediaminetetraacetic acid methyl triester [MPSEDE] |  | 76.2 | 69.6 | 95.9 | 93.7 |  | significantly reduced IOP | significantly reduced NMDA damage | trend to reduce NMDA damage, but this was not significant
